This note sets out measurements from patent US20250136722A1, “CYTOTOXICITY TARGETING CHIMERAS” (GLAXOSMITHKLINE INTELLECTUAL PROPERTY DEVELOPMENT LIMITED, priority 2021, published 2025).

Assay [1] addresses Anti-cotinine antibody (SEQ ID NO: 11 / SEQ ID NO: 12, rabbit variable region with human IgG1 Fc domain). The experiment in a line: Binding of anti-cotinine antibody to ARM compounds by SPR, Biacore T200, 37° C. (Example 202). The following applies: pH 7.4, rabbit variable region/human IgG1 Fc antibody captured on protein A. Here is the method: Anti-cotinine antibodies having a heavy chain sequence of SEQ ID NO: 11 and a light chain sequence of SEQ ID NO: 12 (rabbit variable region with human IgG1 Fc domain containing a DE mutation (S239D/1332E)) were captured on one or more flow cells of a protein A sensor chip (Cytiva) using a Biacore T200 while reserving flow cell 1 as a reference. Following capture, a 3000 second wait step was included to reduce drift during compound analysis. ARM compounds of Formula (I) were then injected at 100 μL/min with 200 and 2000 second association and dissociation times. The entire experiment was run at 37° C. with running buffer containing 10 mM HEPES pH 7.4, 150 mM NaCl, 0.005% P20 and 1% DMSO. ARM compounds of Formula (I) were titrated with a top concentration of 200 nM using a 3-fold 5-point dilution series and a corresponding 5-injection buffer cycle was run for blank subtraction. Data were double referenced by subtracting the response of the reference flow cell from that of the antibody-containing flow cell and subsequently subtracting the referenced blank sensorgrams. Following compound analysis, the surface was regenerated using a 30 second injection of pH 1.5 glycine at a flow rate of 30 μL/min after which antibody was re-captured. The experiment was run using Biacore T200 control software and evaluated using Biacore T200 Evaluation software. Curves were fit with a 1:1 kinetic binding model to obtain kon(1/Ms), koff(1/s), Kd (M) determined as koff/kon, and residence time determined as 1/koff. (s).
Anti-cotinine antibody was tested for binding to ARMs compounds of Formula (I) of the invention in the above assay in or more experimental runs and the results are shown in Table 5 below. Affinity is reported as a pKd value. The pKd value is the negative log of the Kd value, wherein the Kd value is the dissociation constant measured in molar (M) as noted above. For compounds tested in more than one experimental run, the pKd value is reported as an average.
(SPR reads the build-up and loss of mass on a sensor chip optically.)

Assay [2] has as its target T1, CHOK1 cells engineered to overexpress human CCR2 (Homo sapiens, UniProt P41597).
T1 construct: expressed in transfected cells; host or cells: CHOK1 cells
The experiment in a line: Antibody dependent cellular cytotoxicity (ADCC) reporter assay (Example 199). Type of assay: cell-based. The conditions noted are these: with anti-cotinine antibody SEQ ID NO: 11/12; CHOK1-human CCR2 target cells, Jurkat FcγRIIIa NFAT-luciferase reporter cells; 12-18 hours; read-out: ADCC Reporter Assay pEC50 (converted). Summed up:
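Potency is reported as pEC50 from a nonlinear fit, averaged over runs, using luciferase signal divided by that of compound-free wells. The readout comes from NFAT-luciferase Jurkat cells expressing FcγRIIIa, mixed for 12–18 h with human CCR2-overexpressing CHOK1 cells, 1 pM–10 μM ARM compound and 0.01–200 μg/mL Fc-enhanced anti-cotinine IgG1.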
On the technique in general: Reporter assays use an easily measured gene product as a stand-in for the process of interest.

Assay [3] has as its target human alpha1 nicotinic acetylcholine (nACh) receptor (Homo sapiens, UniProt P02708+Q07001). The experiment in a line: Nicotinic acetylcholine receptor antagonism assay, IONFlux automated patch clamp (Example 203). Type of assay: cell-based. The conditions noted are these: for Emax at 10 µM: maximum percentage antagonism at maximum concentration tested 10 μM; for Emax at 10 µM / Emax at 100 µM: read-out: Maximum Response (%); for IC50: nAChR antagonism, ACh stimulated, patch clamp; for Emax at 100 µM: maximum percentage antagonism at maximum concentration tested 100 μM. As for the experimental part:
Cells expressing human alpha1 nicotinic acetylcholine (nACh) receptor (nAChR) were washed and dissociated using Trypsin containing buffer. Cells were then washed and seeded at a density of 3-5 million cells/mL and allowed to grow for 3 days. Then, 60-80 μL of cells were added to plates and incubated with dose response of an ARM compound of Formula (I) with a top concentration of either 10 μM or 100 μM. The receptor was then stimulated via addition of acetylcholine (ACh) and activation of the receptor was monitored via the IONFlux automated patch clamp system. IonFlux Data Analyzer software was utilized to perform leak subtraction and measure (min) peak current amplitude.
Data processing: (1) Current values recorded for vehicle only applications in individual traps/patterns were subtracted from corresponding current amplitude values for control, test article and control+test article. (2) Control response was calculated as % of the average response of the 3rd out of total 3 ACh (10 mM) applications alone. In rare situations, if the 3rd ACh response was obscured due to technical artifacts, the 2nd and/or 1 st ACh (10 mM) application was considered as control. The peak current amplitude generated in the presence of each test article concentration was then used to calculate the % inhibition as compared to control response (10 mM ACh alone). These estimates were further corrected for vehicle response and run down corrected by normalizing with time matched control responses (10 mM ACh alone). The corrected percentages were then fit with a non-linear function in GraphPad Prism 6 (or later versions) to determine the […].
Exclusion criteria: (i) any n's with poor recording quality, (ii) control current amplitude <500 pA or (iii) significant outliers, as determined by the Grubbs' test.
ARMs compounds of Formula (I) of the invention were tested for antagonism of the nAChR in the above assay in […] experimental runs and the results are shown in Table 7 below. Antagonistic activity of the compounds of Formula (I) of the invention is reported as an IC50 value (half maximal inhibitory concentration) and the maximum percentage antagonism observed at the highest concentration of compound of Formula (I) tested, as indicated in Table 7. For compounds tested in more than one experimental run, the IC50 value is reported as an average.
On the technique in general: The patch-clamp technique gives a direct electrical read-out from membranes.

Each structure is given as a SMILES string. Values joined by “and” are separate entries in the source; they are usually repeats but may differ in a detail not shown here. Identical values can stand only once. Some results are limits rather than exact numbers.

Chain of human alpha1 nicotinic acetylcholine (nACh) receptor (P02708 21-457): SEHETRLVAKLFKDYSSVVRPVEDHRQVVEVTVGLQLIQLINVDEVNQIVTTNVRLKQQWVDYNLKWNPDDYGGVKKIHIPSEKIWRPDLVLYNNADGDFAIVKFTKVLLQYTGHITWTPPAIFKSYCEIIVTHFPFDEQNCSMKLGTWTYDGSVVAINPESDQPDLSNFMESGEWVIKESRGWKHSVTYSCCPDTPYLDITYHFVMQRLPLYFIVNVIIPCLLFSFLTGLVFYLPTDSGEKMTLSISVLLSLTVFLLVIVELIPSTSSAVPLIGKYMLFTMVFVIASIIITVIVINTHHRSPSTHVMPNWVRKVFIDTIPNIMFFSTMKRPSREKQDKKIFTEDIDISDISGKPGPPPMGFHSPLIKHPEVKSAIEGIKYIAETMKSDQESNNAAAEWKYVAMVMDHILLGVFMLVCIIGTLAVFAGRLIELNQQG
Chain of human alpha1 nicotinic acetylcholine (nACh) receptor (P11230 24-501 partner): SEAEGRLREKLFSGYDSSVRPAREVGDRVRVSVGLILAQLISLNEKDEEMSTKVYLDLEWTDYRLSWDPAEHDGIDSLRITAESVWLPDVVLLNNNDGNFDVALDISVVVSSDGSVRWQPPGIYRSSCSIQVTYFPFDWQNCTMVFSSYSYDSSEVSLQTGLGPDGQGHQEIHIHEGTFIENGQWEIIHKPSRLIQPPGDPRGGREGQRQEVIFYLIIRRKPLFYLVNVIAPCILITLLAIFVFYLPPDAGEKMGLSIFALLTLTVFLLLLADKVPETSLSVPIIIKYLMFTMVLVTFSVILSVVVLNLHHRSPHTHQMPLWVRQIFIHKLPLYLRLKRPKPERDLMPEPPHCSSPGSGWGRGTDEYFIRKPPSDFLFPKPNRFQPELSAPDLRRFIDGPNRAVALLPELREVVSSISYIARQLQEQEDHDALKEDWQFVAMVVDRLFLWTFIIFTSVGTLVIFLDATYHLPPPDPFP
Chain of human alpha1 nicotinic acetylcholine (nACh) receptor (Q07001 22-517): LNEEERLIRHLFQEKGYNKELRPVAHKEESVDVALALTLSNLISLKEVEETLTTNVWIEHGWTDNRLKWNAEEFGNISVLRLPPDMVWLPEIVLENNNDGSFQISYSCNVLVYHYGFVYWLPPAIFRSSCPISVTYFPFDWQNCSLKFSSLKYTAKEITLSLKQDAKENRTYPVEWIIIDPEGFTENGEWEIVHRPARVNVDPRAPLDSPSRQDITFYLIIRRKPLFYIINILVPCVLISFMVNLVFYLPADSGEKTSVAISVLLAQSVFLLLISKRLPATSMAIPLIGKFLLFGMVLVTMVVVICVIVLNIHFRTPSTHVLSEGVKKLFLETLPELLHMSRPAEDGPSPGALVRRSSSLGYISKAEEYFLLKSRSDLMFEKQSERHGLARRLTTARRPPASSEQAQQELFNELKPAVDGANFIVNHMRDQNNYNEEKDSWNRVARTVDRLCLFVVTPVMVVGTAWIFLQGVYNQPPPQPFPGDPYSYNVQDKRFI

As for `CC(C)N(C)[C@@H]1CC[C@H](N2CC[C@H](Nc3ncnc4ccc(C(F)(F)F)cc34)C2=O)[C@H](NC(=O)C2CCN(C(=O)CCOCCOCCOCCNC(=O)[C@H]3CC(=O)N(C)[C@@H]3c3cccnc3)CC2)C1` [Example 29], the “pKd of Antibody for ARM Compound of Formula (I)” value (shortened to “pKd of Antibody”) in assay [1] is reported as 9.3345. For the same molecule, in assay [2], the EC50 is 12.6 nM.
On the same counts, the results for `CC(C)N(C)[C@@H]1CC[C@H](N2CC[C@H](Nc3ncnc4ccc(C(F)(F)F)cc34)C2=O)[C@H](NC(=O)CCOCCOCCOCCNc2c(NCCNC(=O)[C@H]3CC(=O)N(C)[C@@H]3c3cccnc3)c(=O)c2=O)C1` [Example 168, (2S,3S)-N-(2-((2-((2-(2-(2-(3-(((1R,2S,5R)-5-(Isopropyl(methyl)amino)-2-((S)-2-oxo-3-((6-(trifluoromethyl)quinazolin-4-yl)amino)pyrrolidin-1-yl)cyclohexyl)amino)-3-oxopropoxy)ethoxy)ethoxy)ethyl)amino)-3,4-dioxocyclobut-1-en-1-yl)amino)ethyl)-1-methyl-5-oxo-2-(pyridin-3-yl)pyrrolidine-3-carboxamide] are 9.06 and 0.793 nM.
Consider `CC(C)N(C)[C@@H]1CC[C@H](N2CC[C@H](Nc3ncnc4ccc(C(F)(F)F)cc34)C2=O)[C@H](NC(=O)[C@H]2C[C@@H](NC(=O)CCOCCOCCNC(=O)CNC(=O)[C@H]3CC(=O)N(C)[C@@H]3c3cccnc3)C2)C1` [Example 66], for which, in assay [1], the “pKd of Antibody” value is on record as 8.649. Also, the EC50 in assay [2] is 0.431 nM.
The term IC50 denotes the concentration that gives 50% inhibition. Higher therefore signals lower potency. Take `CC(C)N(C)[C@@H]1CC[C@H](N2CC[C@H](Nc3ncnc4ccc(C(F)(F)F)cc34)C2=O)[C@H](NC(=O)[C@H]2CC[C@H](c3ccc(C(=O)NCCOCCOCCNC(=O)[C@H]4CC(=O)N(C)[C@@H]4c4cccnc4)cc3)CC2)C1` [Example 140]: the EC50 in assay [2] is 3.16 nM. In addition, in assay [3], the Emax at 10 µM was found to be 18.2% and the IC50 is greater than 10000 nM.
As for `CC(C)N(C)[C@@H]1CC[C@H](N2CC[C@H](Nc3ncnc4ccc(C(F)(F)F)cc34)C2=O)[C@H](NC(=O)[C@H]2C[C@@H](NC(=O)CCOCCNC(=O)CCOCCNC(=O)[C@H]3CC(=O)N(C)[C@@H]3c3cccnc3)C2)C1` [Example 44, (2S,3S)-N-(2-(3-((2-(3-(((1S,3s)-3-(((1R,2S,5R)-5-(Isopropyl(methyl)amino)-2-((S)-2-oxo-3-((6-(trifluoromethyl)quinazolin-4-yl)amino)pyrrolidin-1-yl)cyclohexyl)carbamoyl)cyclobutyl)amino)-3-oxopropoxy)ethyl)amino)-3-oxopropoxy)ethyl)-1-methyl-5-oxo-2-(pyridin-3-yl)pyrrolidine-3-carboxamide], the EC50 in assay [2] was 0.897 nM. Further, in assay [3], the Emax at 100 µM is 51.5% and the IC50 was no less than 100000 nM.
On to `CC(C)N(C)[C@@H]1CC[C@H](N2CC[C@H](Nc3ncnc4ccc(C(F)(F)F)cc34)C2=O)[C@H](NC(=O)[C@H]2C[C@H](NC(=O)CCCO[C@H]3CC[C@H](OCCNC(=O)[C@H]4CC(=O)N(C)[C@@H]4c4cccnc4)CC3)C2)C1` [Example 8], for which the EC50 in assay [2] is 0.631 nM. In assay [3], the Emax at 100 µM is 73.1% and 47200 nM corresponded to half-maximal inhibition (IC50).
As for `CC(C)N(C)[C@@H]1CC[C@H](N2CC[C@H](Nc3ncnc4ccc(C(F)(F)F)cc34)C2=O)[C@H](NC(=O)[C@H]2CC[C@H](NC(=O)CCCO[C@H]3CC[C@H](OCCNC(=O)[C@H]4CC(=O)N(C5CC5)[C@@H]4c4cccnc4)CC3)CC2)C1` [Example 13], the “pKd of Antibody” value in assay [1] came to 10.511.
With `CC(C)N(C)[C@@H]1CC[C@H](N2CC[C@H](Nc3ncnc4ccc(C(F)(F)F)cc34)C2=O)[C@H](NC(=O)[C@H]2CC[C@@H](NC(=O)CCOCCCNC(=O)CCCNC(=O)[C@H]3CC(=O)N(C)[C@@H]3c3cccnc3)CC2)C1` [Example 17, (2S,3S)-N-(4-((3-(3-(((1S,4s)-4-(((1R,2S,5R)-5-(Isopropyl(methyl)amino)-2-((S)-2-oxo-3-((6-(trifluoromethyl)quinazolin-4-yl)amino)pyrrolidin-1-yl)cyclohexyl)carbamoyl)cyclohexyl)amino)-3-oxopropoxy)propyl)amino)-4-oxobutyl)-1-methyl-5-oxo-2-(pyridin-3-yl)pyrrolidine-3-carboxamide], in assay [2], the EC50 was 0.338 nM and 0.656 nM. In assay [3], the Emax at 100 µM is 55.1% and the 50% inhibitory concentration (IC50) is no less than 100000 nM.
For `CC(C)N(C)[C@@H]1CC[C@H](N2CC[C@H](Nc3ncnc4ccc(C(F)(F)F)cc34)C2=O)[C@H](NC(=O)CCOCCN2CCC3(CCC(C(=O)NCCNC(=O)[C@H]4CC(=O)N(C)[C@@H]4c4cccnc4)CC3)CC2)C1` [compound 184], in assay [2], the EC50 is 0.398 nM. In addition, in assay [3], the Emax at 10 µM came out at 69.2% and inhibition was half-maximal at 6390 nM (IC50).
As to `CC(C)N(C)[C@@H]1CC[C@H](N2CC[C@H](Nc3ncnc4ccc(C(F)(F)F)cc34)C2=O)[C@H](NC(=O)[C@H]2C[C@H](NC(=O)CCOCCOCCOCCNC(=O)[C@H]3CC(=O)N(C)[C@@H]3c3cccnc3)C2)C1` [Example 27], the EC50 in assay [2] was 7.28 nM. Also, in assay [3], the Emax at 100 µM was 53.8% and the IC50 turned out to be 93700 nM.
For `CC(C)N(C)[C@@H]1CC[C@H](N2CC[C@H](Nc3ncnc4ccc(C(F)(F)F)cc34)C2=O)[C@H](NC(=O)c2ccc(N3CCC(C(=O)NCCOCCOCCNC(=O)[C@H]4CC(=O)N(C)[C@@H]4c4cccnc4)CC3)cc2)C1` [Example 130, 1-(4-(((1R,2S,5R)-5-(Isopropyl(methyl)amino)-2-((S)-2-oxo-3-((6-(trifluoromethyl)quinazolin-4-yl)amino)pyrrolidin-1-yl)cyclohexyl)carbamoyl)phenyl)-N-(2-(2-(2-((2S,3S)-1-methyl-5-oxo-2-(pyridin-3-yl)pyrrolidine-3-carboxamido)ethoxy)ethoxy)ethyl)piperidine-4-carboxamide], the EC50 in assay [2] was 3.98 nM. Also, in assay [3], the Emax at 10 µM came to 16.8% and the IC50 was greater than 10000 nM.
On the same counts, the results for `CC(C)N(C)[C@@H]1CC[C@H](N2CC[C@H](Nc3ncnc4ccc(C(F)(F)F)cc34)C2=O)[C@H](NC(=O)C2CCN(c3ccc(C(=O)NCCOCCOCCNC(=O)[C@H]4CC(=O)N(C)[C@@H]4c4cccnc4)cc3)CC2)C1` [Example 142] are 0.501 nM, 13.1% and greater than 10000 nM.
Regarding `CC(C)N(C)[C@@H]1CC[C@H](N2CC[C@H](Nc3ncnc4ccc(C(F)(F)F)cc34)C2=O)[C@H](NC(=O)[C@H]2CC[C@@H](NC(=O)CCCOC[C@H]3CC[C@@H](COCCNC(=O)[C@H]4CC(=O)N(C)[C@@H]4c4cccnc4)CC3)CC2)C1` [Example 61], the “pKd of Antibody” value in assay [1] is listed as 9.558.
